Test results as given in ChEMBL document CHEMBL3217638, “Synthetic modulators of the retinoic acid receptor-related orphan receptors” (Medchemcomm, 2013).

Target: T1, Nuclear receptor ROR-gamma (Homo sapiens, UniProt P51449)
T1 sequence (P51449 whole entry): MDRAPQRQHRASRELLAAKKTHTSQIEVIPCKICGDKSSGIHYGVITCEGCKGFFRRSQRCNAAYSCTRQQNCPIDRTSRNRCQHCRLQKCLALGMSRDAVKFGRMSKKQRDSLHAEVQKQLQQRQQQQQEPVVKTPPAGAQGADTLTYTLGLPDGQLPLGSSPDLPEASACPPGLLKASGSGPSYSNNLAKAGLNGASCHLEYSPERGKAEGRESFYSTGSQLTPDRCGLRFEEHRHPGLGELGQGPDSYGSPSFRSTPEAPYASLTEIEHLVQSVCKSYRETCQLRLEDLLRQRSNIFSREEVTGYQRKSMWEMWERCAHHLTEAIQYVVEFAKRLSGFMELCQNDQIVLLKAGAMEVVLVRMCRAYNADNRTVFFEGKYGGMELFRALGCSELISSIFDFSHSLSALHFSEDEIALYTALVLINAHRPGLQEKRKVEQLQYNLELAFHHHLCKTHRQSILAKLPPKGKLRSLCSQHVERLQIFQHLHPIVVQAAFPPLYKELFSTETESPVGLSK
Assay: Displacement of fluorescein-labeled 25-hydroxycholesterol from human N-terminal 6xHis-tagged ROR gamma LBD (residues 262 to 518) expressed in Escherichia coli BL21-CodonPlus(DE3)-RIL cells by fluorescence polarization assay

IC50: 4 µM
Compound: C[C@H]1O[C@@H](O[C@H]2[C@@H](O)C[C@H](O[C@H]3[C@@H](O)C[C@H](O[C@H]4CC[C@@]5(C)[C@H](CC[C@@H]6[C@@H]5C[C@@H](O)[C@]5(C)[C@@H](C7=CC(=O)OC7)CC[C@]65O)C4)O[C@@H]3C)O[C@@H]2C)C[C@H](O)[C@@H]1O [DIGOXIN]
